{"source": "patent US8197801B2", "about": "“Use of compounds for the preservation of the human or animal body and compositions comprising same” (Arkema France, priority 2006, dated 2012)", "origin": "cited, not measured here", "data": [{"conditions": "general statement", "values": [{"smiles": "CCOCOCC", "note": "[ethylal, C2H5—(OCH2)—OC2H5]", "Toxicity relative to methanol and formaldehyde": "much less toxic than methanol and formaldehyde"}, {"smiles": "CCCCOCOCCCC", "note": "[butylal, C4H9—(OCH2)—OC4H9]", "Toxicity relative to methanol and formaldehyde": "much less toxic than methanol and formaldehyde"}, {"smiles": "COCOC", "note": "[methylal, CH3—(OCH2)—OCH3]", "Toxicity relative to methanol and formaldehyde": "much less toxic than methanol and formaldehyde"}]}]}
